Measured values from PubChem BioAssay AID330 (DTP/NCI, 2004).
“And” between values parts separate entries of the source, which are not always exact repeats. Equal entries are not always repeated. Inconclusive results and toxic doses are left out. Square brackets hold non-standard residues; d marks the D form. Peptide text beside a SMILES is read from it. * marks the point of attachment. ξ: configuration not given here. Cbz = O=C(OCc1ccccc1)*; ξNle = CCCCC(N)C(=O)O

Test system: P388 leukemia ip, CD2F1 mice, survival T/C
Test: NCI In Vivo Anticancer Drug Screen. Data for tumor model P388 Leukemia (intraperitoneal) in CD2F1 (CDF1) mice
Conditions: endpoint: median survival time, higher = longer survival
How it was run: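 Mice carrying the transplanted tumor received test compound or vehicle. Survival was recorded in each group, and the value is the treated-group measurement divided by that of the vehicle-treated control group.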

[1] = dose: 60.0 mg/kg/injection, schedule: Q01DX005 (ip), vehicle: saline with Tween-80
[2] = dose: 120.0 mg/kg/injection, schedule: Q01DX005 (ip), vehicle: saline with Tween-80
[3] = dose: 25.0 mg/kg/injection, schedule: Q01DX005 (ip), vehicle: Klucel (hydroxypropylcellulose) (HPC)
[4] = dose: 50.0 mg/kg/injection, schedule: Q01DX005 (ip), vehicle: Klucel (hydroxypropylcellulose) (HPC)
[5] = dose: 100.0 mg/kg/injection, schedule: Q01DX005 (ip), vehicle: Klucel (hydroxypropylcellulose) (HPC)
[6] = dose: 200.0 mg/kg/injection, schedule: Q01DX005 (ip), vehicle: Klucel (hydroxypropylcellulose) (HPC)

For `CC(NCCN(C)C)C1CC2CCCCN2C1` (configuration not stated), which T/C [1] is on record?
The T/C was 104 % of control.

What about the T/C [2] of the same molecule?
The T/C was 97 % of control.

What does the source list for `CCCCC(NC(=O)OCc1ccccc1)C(=O)NCC(=O)OC` (configuration not stated) (Cbz-[ξNle]-Gly-OMe)?
T/C (dose: 50.0 mg/kg/injection, schedule: Q01DX005 (ip), vehicle: saline with Tween-80): 99 % of control; T/C (dose: 100.0 mg/kg/injection, schedule: Q01DX005 (ip), vehicle: saline with Tween-80): 100 % of control; T/C (dose: 200.0 mg/kg/injection, schedule: Q01DX005 (ip), vehicle: saline with Tween-80): 99 % of control

How did the T/C [3] turn out when `CC1(C)[C@H](C(=O)O)N2C(=O)[C@@H](NC(=O)C(c3ccccc3)c3ccccc3)[C@H]2S1=O` (some centres not stated) was run?
The T/C was 101 % of control.

And the T/C [4]?
The T/C was 99 % of control.

And the T/C [5]?
Its T/C is 101 % of control.

For `COc1cccc2c1C(=O)c1c(O)c3c(c(O)c1C2=O)C[C@@](O)(C(C)=O)C[C@@H]3OC1CC(NC(=O)C(N)CCN)C(O)C(C)O1` (some centres not stated), which T/C (dose: 5.0 mg/kg/injection, schedule: Q04DX003 (ip), vehicle: water) is on record?
Its T/C is 96 % of control.

And the T/C (dose: 10.0 mg/kg/injection, schedule: Q04DX003 (ip), vehicle: water)?
The T/C was 94 % of control.

What about the T/C (dose: 20.0 mg/kg/injection, schedule: Q04DX003 (ip), vehicle: water) of the same molecule?
Its T/C is 99 % of control.

What about the T/C (dose: 40.0 mg/kg/injection, schedule: Q04DX003 (ip), vehicle: water) of the same molecule?
The T/C was 105 % of control.

And the T/C (dose: 80.0 mg/kg/injection, schedule: Q04DX003 (ip), vehicle: water)?
Its T/C is 118 % of control.

And the T/C (dose: 160.0 mg/kg/injection, schedule: Q04DX003 (ip), vehicle: distilled water + Tween-80)?
Its T/C is 106 % of control.

And the T/C (dose: 320.0 mg/kg/injection, schedule: Q04DX003 (ip), vehicle: distilled water + Tween-80)?
Its T/C is 105 % of control.

For `Cc1n[nH]c(=O)c2cc3oc4ccccc4c3n12`, which T/C [1] is on record?
The T/C was 100 % of control.

What about the T/C [2] of the same molecule?
Its T/C is 94 % of control.

What about the T/C (dose: 240.0 mg/kg/injection, schedule: Q01DX005 (ip), vehicle: saline with Tween-80) of the same molecule?
The T/C was 92 % of control.

`C[n+]1c2cc(N)ccc2cc2ccc(N)cc21` was tested. Which T/C (dose: 3.12 mg/kg/injection, schedule: Q01DX005 (ip), vehicle: suspension in saline) did it give?
The T/C was 121 % of control.

And the T/C (dose: 6.25 mg/kg/injection, schedule: Q01DX005 (ip), vehicle: suspension in saline)?
Its T/C is 117 % of control.

What about the T/C (dose: 6.25 mg/kg/injection, schedule: Q01DX009 (ip), vehicle: saline) of the same molecule?
Its T/C is 153 % of control.

What about the T/C (dose: 12.5 mg/kg/injection, schedule: Q01DX009 (ip), vehicle: saline) of the same molecule?
Its T/C is 164 % of control.

Which results are given for `O=C1C=CC(=O)C(CC2CCCC2C2=CC(=O)C=CC2=O)=C1` (configuration not stated)?
T/C (dose: 6.25 mg/kg/injection, schedule: Q04DX002 (ip), vehicle: saline with Tween-80): 109 % of control; T/C (dose: 12.5 mg/kg/injection, schedule: Q04DX002 (ip), vehicle: saline with Tween-80): 101 % of control; T/C (dose: 25.0 mg/kg/injection, schedule: Q04DX002 (ip), vehicle: saline with Tween-80): 99 % of control and 109 % of control

`CC1CCC(C(C)(C)c2ccccc2)CC1OC(=O)/C=C/CC(C)(C)CC=C1C2CCC1N(C(=O)OCC(Cl)(Cl)Cl)N2C(=O)OCC(Cl)(Cl)Cl` (configuration not stated) was tested. Which T/C [3] did it give?
Its T/C is 89 % of control.

And the T/C [4]?
The T/C was 89 % of control.

With `CCO/C=N/n1c(C(=O)NCCCOC)nc2ccccc2c1=O` as the molecule, how does the T/C [4] read?
The T/C was 107 % of control.

And the T/C [5]?
Its T/C is 94 % of control.

And the T/C [6]?
Its T/C is 100 % of control.

`CN(C)CCC(=O)C(=Cc1ccco1)C(=O)CCN(C)C` was tested. Which T/C (dose: 60.0 mg/kg/injection, schedule: Q01DX005 (ip), vehicle: saline) did it give?
The T/C was 100 % of control.

And the T/C (dose: 120.0 mg/kg/injection, schedule: Q01DX005 (ip), vehicle: saline)?
The T/C was 104 % of control.

What about the T/C (dose: 240.0 mg/kg/injection, schedule: Q01DX005 (ip), vehicle: saline) of the same molecule?
The T/C was 109 % of control.

What does the source list for `CC(C)C(CC[C@@H](C)C1CC[C@@]2(C)C3=C(CC[C@]12C)[C@@]1(C)CC[C@H](O)C(C)(C)[C@@H]1CC3)S[As](C)C` (some centres not stated)?
T/C [4]: 92 % of control; T/C [5]: 95 % of control; T/C [6]: 97 % of control

What does the source list for `CC(C)CC1NC(CC(C)C)N2C(CC(C)C)N12` (configuration not stated)?
T/C (dose: 100.0 mg/kg/injection, schedule: Q01DX001 (ip), vehicle: Klucel (hydroxypropylcellulose) (HPC)): 103 % of control; T/C (dose: 200.0 mg/kg/injection, schedule: Q01DX001 (ip), vehicle: Klucel (hydroxypropylcellulose) (HPC)): 103 % of control; T/C (dose: 400.0 mg/kg/injection, schedule: Q01DX001 (ip), vehicle: Klucel (hydroxypropylcellulose) (HPC)): 99 % of control

For `Cc1ccc(-c2cnc3[nH]c(=O)[nH]c(=O)c3n2)cc1`, which T/C (dose: 100.0 mg/kg/injection, schedule: Q04DX002 (ip), vehicle: saline) is on record?
Its T/C is 97 % of control.

What about the T/C (dose: 200.0 mg/kg/injection, schedule: Q04DX002 (ip), vehicle: saline) of the same molecule?
Its T/C is 106 % of control.

What about the T/C (dose: 400.0 mg/kg/injection, schedule: Q04DX002 (ip), vehicle: saline) of the same molecule?
Its T/C is 91 % of control.
